Measurements from the supplement of paper PMC10307832.

Assays:
Experiment in all cases: relative viability (nuclei count vs DMSO), 5 days (fraction); higher = more cells survive
GSK-J4 + OSI-027 = compound: CCOC(=O)CCNc1cc(N2CCc3ccccc3CC2)nc(-c2ccccn2)n1 [GSK-J4] + COc1cccc2cc(-c3nc([C@H]4CC[C@H](C(=O)O)CC4)n4ncnc(N)c34)[nH]c12 [OSI-027] (partner 0.5 µM)
Method in brief: (§1)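 The day after seeding in 1536-well plates, lung cancer cell lines were treated by pin tool with a single drug, or with a fixed anchor-drug dose together with five library-drug doses (not always all listed) in √10 steps. After 5 days, a combined fix-and-stain solution (final 0.05% Triton X-100, 1% formaldehyde, 1 ug/ml Hoechst) was added. Nuclei counted on 4× images gave relative viability as treated counts over vehicle counts, reported as the median of duplicate plates.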

AZ3146 + Dasatinib = compound: CN1CCC(CC1)OC2=CC(=C(C=C2)NC3=NC=C4C(=N3)N(C(=O)N4C)C5CCCC5)OC [AZ3146] + Cc1nc(Nc2ncc(C(=O)Nc3c(C)cccc3Cl)s2)cc(N2CCN(CCO)CC2)n1 [Dasatinib] (partner 0.075 µM)
Method in brief: as §1

AZ3146 + Lapatinib = compound: CN1CCC(CC1)OC2=CC(=C(C=C2)NC3=NC=C4C(=N3)N(C(=O)N4C)C5CCCC5)OC [AZ3146] + CS(=O)(=O)CCNCc1ccc(-c2ccc3ncnc(Nc4ccc(OCc5cccc(F)c5)c(Cl)c4)c3c2)o1 [Lapatinib] (partner 2 µM)
Method in brief: as §1

GSK-J4 + Pictilisib = compound: CCOC(=O)CCNc1cc(N2CCc3ccccc3CC2)nc(-c2ccccn2)n1 [GSK-J4] + CS(=O)(=O)N1CCN(Cc2cc3nc(-c4cccc5[nH]ncc45)nc(N4CCOCC4)c3s2)CC1 [Pictilisib] (partner 1 µM)
Method in brief: as §1

Cell Line	relative viability (GSK-J4 + OSI-027; first compound 0.5 µM)	relative viability (GSK-J4 + OSI-027; first compound 1.581 µM)	relative viability (GSK-J4 + OSI-027; first compound 5 µM)	relative viability (GSK-J4 + OSI-027; first compound 15.81 µM)	relative viability (GSK-J4 + OSI-027; first compound 50 µM)	relative viability (AZ3146 + Dasatinib; first compound 0.08 µM)	relative viability (AZ3146 + Dasatinib; first compound 0.253 µM)	relative viability (AZ3146 + Dasatinib; first compound 0.8 µM)	relative viability (AZ3146 + Dasatinib; first compound 2.53 µM)	relative viability (AZ3146 + Dasatinib; first compound 8 µM)	relative viability (AZ3146 + Lapatinib; first compound 0.08 µM)	relative viability (AZ3146 + Lapatinib; first compound 0.253 µM)	relative viability (AZ3146 + Lapatinib; first compound 0.8 µM)	relative viability (AZ3146 + Lapatinib; first compound 2.53 µM)	relative viability (AZ3146 + Lapatinib; first compound 8 µM)	relative viability (GSK-J4 + Pictilisib; first compound 0.5 µM)	relative viability (GSK-J4 + Pictilisib; first compound 5 µM)	relative viability (GSK-J4 + Pictilisib; first compound 15.81 µM)	relative viability (GSK-J4 + Pictilisib; first compound 50 µM)	relative viability (GSK-J4 + Pictilisib; first compound 1.581 µM)
NCI-H522	0.78	0.637	0.541	0.585	0.543	0.721	0.73	0.863	0.815	1.02	–	–	–	–	–	–	–	–	–	–
HCC-366	1.01	0.889	–	0.524	0.785	0.483	0.57	0.56	0.588	0.572	1	1.1	1.01	0.964	0.693	0.125	0.137	0.181	0.122	–
A-427	0.536	–	0.439	0.396	0.198	0.561	0.775	0.651	0.828	0.66	0.988	1.03	0.957	0.969	1.01	0.703	0.688	0.613	0.675	–
NCI-H2347	0.449	0.347	0.617	–	0.338	0.303	0.248	0.294	0.316	0.379	0.853	0.832	0.939	1.04	1.03	0.623	0.855	0.731	0.494	0.596
NCI-H1792	0.671	–	0.778	0.485	0.681	0.737	0.855	–	0.808	0.822	0.854	1.09	0.868	0.936	0.954	0.306	0.254	0.244	0.263	0.25
SK-LU-1	0.339	0.318	0.258	0.292	0.218	0.197	0.177	0.162	0.182	0.137	0.803	0.972	0.825	1.13	0.697	0.565	0.483	0.512	0.408	0.543
RERF-LC-KJ	0.582	0.475	0.485	0.473	0.382	0.877	0.874	0.779	0.837	0.504	0.816	0.889	0.839	0.804	0.84	0.465	0.639	0.635	0.434	0.459
NCI-H1993	0.536	0.485	0.646	0.563	0.527	0.537	0.563	0.677	0.643	0.475	0.896	0.788	0.724	0.853	0.779	0.834	0.807	0.684	0.725	0.845
NCI-H1734	0.544	0.518	0.489	0.445	0.372	0.436	0.461	0.493	0.484	0.394	1.05	1.17	1.07	1.1	0.942	0.464	0.401	0.426	0.341	0.508
HCC-44	0.51	0.31	–	0.387	0.483	–	–	–	–	–	0.907	0.953	0.999	1.01	0.971	0.665	0.498	0.553	0.442	0.57
NCI-H1944	0.466	0.399	0.309	0.296	0.355	0.171	0.194	0.214	0.239	0.229	–	0.801	0.819	0.837	0.987	0.374	0.353	0.336	0.288	0.346
HCC-78	0.351	0.355	0.727	0.368	0.409	0.254	0.304	0.309	0.354	0.315	–	0.488	0.762	0.864	0.574	0.202	0.889	–	0.225	0.185
NCI-H838	0.452	0.353	–	0.362	0.385	0.408	0.303	0.269	0.331	0.269	1.07	0.939	0.935	0.858	0.32	0.624	–	0.467	0.433	0.407
SW 1573	0.657	0.423	0.507	0.519	0.211	0.557	0.637	0.505	0.357	0.117	1.19	1.17	1.07	1.04	1.05	0.526	0.549	0.544	0.294	0.562
NCI-H1623	0.438	0.456	0.48	0.406	0.435	0.482	0.455	0.498	0.601	0.556	–	–	–	–	–	–	–	–	–	–
ChaGo-K-1	0.591	0.419	0.441	0.533	0.428	0.614	0.554	0.512	0.6	0.45	–	–	–	–	–	0.864	0.655	0.82	0.596	–
LCLC-97TM1	0.443	0.357	0.574	0.342	0.269	0.669	0.755	0.762	0.785	0.812	–	–	1.2	0.861	0.289	–	0.399	0.249	0.15	–

Cell Line	relative viability (GSK-J4 + OSI-027; first compound 0.5 µM)	relative viability (GSK-J4 + OSI-027; first compound 1.581 µM)	relative viability (GSK-J4 + OSI-027; first compound 5 µM)	relative viability (GSK-J4 + OSI-027; first compound 15.81 µM)	relative viability (GSK-J4 + OSI-027; first compound 50 µM)	relative viability (AZ3146 + Dasatinib; first compound 0.08 µM)	relative viability (AZ3146 + Dasatinib; first compound 0.253 µM)	relative viability (AZ3146 + Dasatinib; first compound 0.8 µM)	relative viability (AZ3146 + Dasatinib; first compound 2.53 µM)	relative viability (AZ3146 + Dasatinib; first compound 8 µM)	relative viability (AZ3146 + Lapatinib; first compound 0.08 µM)	relative viability (AZ3146 + Lapatinib; first compound 0.253 µM)	relative viability (AZ3146 + Lapatinib; first compound 0.8 µM)	relative viability (AZ3146 + Lapatinib; first compound 2.53 µM)	relative viability (AZ3146 + Lapatinib; first compound 8 µM)	relative viability (GSK-J4 + Pictilisib; first compound 0.5 µM)	relative viability (GSK-J4 + Pictilisib; first compound 5 µM)	relative viability (GSK-J4 + Pictilisib; first compound 15.81 µM)	relative viability (GSK-J4 + Pictilisib; first compound 50 µM)	relative viability (GSK-J4 + Pictilisib; first compound 1.581 µM)
COR-L 105	0.631	0.64	0.546	0.585	0.692	0.394	0.261	0.238	0.288	0.191	0.357	0.36	0.317	0.341	0.254	0.519	0.375	0.402	0.36	0.414
NCI-H1666	0.836	0.738	1.15	0.763	0.648	0.799	0.818	0.74	0.764	0.596	0.681	0.669	0.694	0.891	0.536	0.325	0.419	0.603	0.364	–
CAL-12T	0.631	0.646	0.778	0.61	0.528	0.453	0.517	0.369	0.377	0.192	0.701	–	0.588	0.771	0.56	0.622	0.626	0.418	0.454	0.425
EPLC-272H	0.313	0.255	0.261	0.293	0.192	–	0.396	0.347	0.413	0.287	0.897	0.911	0.957	0.951	0.877	0.428	0.35	0.275	0.219	–
NCI-H1299	–	–	–	–	–	–	–	–	–	–	0.892	0.97	0.985	0.958	0.787	0.733	0.849	0.705	0.327	0.802
ABC-1	0.533	0.442	0.441	0.357	0.336	0.493	0.56	0.562	0.713	0.421	1.24	1.15	1.33	1.31	1.11	0.686	0.671	0.648	0.436	0.591
NCI-H358	0.765	0.68	0.795	0.504	0.617	0.2	0.135	0.149	0.153	0.209	0.595	0.471	0.377	0.384	0.435	0.459	0.377	0.407	0.268	0.304
NCI-H2342	0.669	0.626	0.662	0.615	0.699	0.293	0.275	0.29	0.29	0.345	–	–	–	–	–	–	–	–	–	–
EBC-1	–	–	–	–	–	–	–	–	–	–	0.2	0.218	0.183	0.201	0.208	0.376	0.451	0.416	0.257	0.336
Calu-6	–	–	–	–	–	–	–	–	–	–	1.07	1.16	1.01	1	0.397	0.825	0.895	0.88	0.807	0.874
A549	–	–	–	–	–	–	–	–	–	–	0.977	0.948	0.924	0.872	0.109	0.43	0.573	0.488	0.332	–
SW 900	0.543	0.602	0.504	0.52	0.331	0.479	0.456	0.503	0.666	0.337	–	–	–	–	–	–	–	–	–	–
LCLC-103H	0.438	0.325	0.379	0.432	0.326	0.532	0.354	0.472	0.551	0.422	–	–	–	–	–	0.704	0.542	0.691	0.627	0.6
NCI-H441	0.673	0.472	0.567	0.536	0.433	0.636	0.68	0.922	0.497	0.536	–	–	–	–	–	0.427	0.571	0.506	0.403	0.458
IA-LM	–	–	–	–	–	–	–	–	–	–	–	0.955	0.718	0.72	0.49	0.376	0.489	0.251	0.0942	0.202
NCI-H1703	–	–	–	–	–	–	–	–	–	–	1.16	1.26	0.953	0.892	0.372	0.254	0.232	0.195	0.275	0.259
NCI-H1648	0.239	–	0.308	0.262	0.23	–	–	–	–	–	–	–	–	–	–	–	–	–	–	–
